# Reference: PMC2362735, “New semisynthetic vinca alkaloids: chemical, biochemical and cellular studies” (British Journal of Cancer, 1999)
# What was measured:
# [1] = tested on: Human neuroblastoma cell line (SH-SY5Y); test: Microculture tetrazolium assay (MTA), cytotoxicity; conditions: read-out: Cytotoxicity MTA IC50, 4-day treatment, MTT
# Text: (§1) The numerous antimitotic drugs already developed and therapeu- tically used for a large number of pathologies belong to different classes based on their chemical structure and other distinctive features. Antimitotic drugs usually target the tubulin/microtubule network of the cytoskeleton that is formed by assembly of cyto- plasmic tubulin dimers. The stability of the different microtubular structures varies considerably; some of their functions depend on their lability. The lability is augmented by the extreme sensitivity to various drugs. Several synthetic and natural compounds interact specifically with tubulin and/or microtubule, fundamentally destroying its dynamic character and leading to cell death. […] Because of their extensive clinical use, it is important to synthesize additional agents having at least the same biological activity. […] Nevertheless, it is unclear yet how the anti-calmodulin activity of these drugs is related to their desired and undesired pharmacological effects. […] The synthesis of the KAR derivatives are presented. […] Taxol, GTP and trifluoperazine were purchased from Sigma. All organic reagents for synthesis of the new compounds were obtained from Aldrich and were of the highest grade. All other chemicals were reagent grade commercial preparations. […] Tubulin was stored in 1 M sucrose, 10 mM sodium phosphate buffer, 0.5 mM magnesium chloride and 0.1 mM GTP, pH 7.0, at -80C and dialysed against the appropriate buffer before use. […] PFK, aldolase and glycerol-3-phosphate dehydrogenase- triosephosphate isomerase purified from rabbit skeletal muscle were purchased in ammonium sulphate suspensions from Sigma or Boehringer. The enzyme suspensions were centrifuged at 10 000g for 5 min. The pellets were suspended in the appropriate buffer, then the enzymes were gel filtered or dialysed in the same buffer to remove ammonium sulphate. […] (Figure 1B; R1 , CH3; R2 , CH2 CH2 Cl). […] After 2 h incubation at room temperature, 200 ml dried toluene was added to the reaction mixture. […] The mixture was stirred for 30 min. After separation of the organic phase, it was washed with water (3 x 30 ml) and dried with potassium sulphate and evaporated on a water bath of 35-40C at 20-27 hPa. The resulting material was chromatographed on silica gel (500 g, bead size of 0.040- 0.063 mm) column (30 mm x 500 mm) using ethyl acetate/ethanol (9:1) mixture as eluent. […] The mixture was kept for 4 h at room temperature and then evaporated on a water bath at 40C under a vacuum of 80 hPa to a final volume of 5-6 ml. […] (Figure 1B, R1 , CHO; R2 , CH2 CH2 Cl). […] Synthesis of KAR-4 [3-allyl-2,4-dioxo-3,5-spiro-oxazolidino- 4-deacetoxy-vinblastine] (Figure 1B; R1 , CH3; R2 , CH2 CH=CH2 ). […] NMR measurements were carried out on a Varian Unity plus-500 instrument (500 MHz for 1H and 125 MHz for 13C) in DMSO. Chemical shifts were determined relative to dTMS = 0.00 p.p.m. 1H and 13C signal assignments were verified by a concerted use of two-dimensional 1H-1H and 1H-13C shift correlation methods (DQFCOSY, HSQC, HMBC) and NOESY experiments. The gradient-enhanced DQFCOSY, HSQC, HMBC and NOESY experiments were recorded by using the standard spectrometer software package. A mixing time of tmix = 0.5 s was used for the NOESY experiments.
# calmodulin = target: T1, calmodulin (Bos taurus, UniProt P62157); test: Anti-calmodulin activity assay: calmodulin-induced PFK inactivation; format: biochemical, bovine; conditions: drug 20 M
# T1 construct: Calmodulin from bovine brain was purified to homogeneity using Phenyl-Sepharose (Pharmacia) chromatography; from tissue; host or cells: bovine brain
# Text: The numerous antimitotic drugs already developed and therapeu- tically used for a large number of pathologies belong to different classes based on their chemical structure and other distinctive features. Antimitotic drugs usually target the tubulin/microtubule network of the cytoskeleton that is formed by assembly of cyto- plasmic tubulin dimers. The stability of the different microtubular structures varies considerably; some of their functions depend on their lability. The lability is augmented by the extreme sensitivity to various drugs. Several synthetic and natural compounds interact specifically with tubulin and/or microtubule, fundamentally destroying its dynamic character and leading to cell death. […] Because of their extensive clinical use, it is important to synthesize additional agents having at least the same biological activity. […] Nevertheless, it is unclear yet how the anti-calmodulin activity of these drugs is related to their desired and undesired pharmacological effects. […] The synthesis of the KAR derivatives are presented. […] Taxol, GTP and trifluoperazine were purchased from Sigma. All organic reagents for synthesis of the new compounds were obtained from Aldrich and were of the highest grade. All other chemicals were reagent grade commercial preparations. […] Tubulin was stored in 1 M sucrose, 10 mM sodium phosphate buffer, 0.5 mM magnesium chloride and 0.1 mM GTP, pH 7.0, at -80C and dialysed against the appropriate buffer before use. […] PFK, aldolase and glycerol-3-phosphate dehydrogenase- triosephosphate isomerase purified from rabbit skeletal muscle were purchased in ammonium sulphate suspensions from Sigma or Boehringer. The enzyme suspensions were centrifuged at 10 000g for 5 min. The pellets were suspended in the appropriate buffer, then the enzymes were gel filtered or dialysed in the same buffer to remove ammonium sulphate. […] (Figure 1B; R1 , CH3; R2 , CH2 CH2 Cl). […] After 2 h incubation at room temperature, 200 ml dried toluene was added to the reaction mixture. […] The mixture was stirred for 30 min. After separation of the organic phase, it was washed with water (3 x 30 ml) and dried with potassium sulphate and evaporated on a water bath of 35-40C at 20-27 hPa. The resulting material was chromatographed on silica gel (500 g, bead size of 0.040- 0.063 mm) column (30 mm x 500 mm) using ethyl acetate/ethanol (9:1) mixture as eluent. […] The mixture was kept for 4 h at room temperature and then evaporated on a water bath at 40C under a vacuum of 80 hPa to a final volume of 5-6 ml. […] (Figure 1B, R1 , CHO; R2 , CH2 CH2 Cl). […] Synthesis of KAR-4 [3-allyl-2,4-dioxo-3,5-spiro-oxazolidino- 4-deacetoxy-vinblastine] (Figure 1B; R1 , CH3; R2 , CH2 CH=CH2 ). […] NMR measurements were carried out on a Varian Unity plus-500 instrument (500 MHz for 1H and 125 MHz for 13C) in DMSO. Chemical shifts were determined relative to dTMS = 0.00 p.p.m. 1H and 13C signal assignments were verified by a concerted use of two-dimensional 1H-1H and 1H-13C shift correlation methods (DQFCOSY, HSQC, HMBC) and NOESY experiments. The gradient-enhanced DQFCOSY, HSQC, HMBC and NOESY experiments were recorded by using the standard spectrometer software package. A mixing time of tmix = 0.5 s was used for the NOESY experiments. […] Mass spectrum was recorded on a Kratos MS 80 instrument using FAB.
# tubulin = test: Taxol-induced tubulin polymerization, turbidity at 350 nm; format: biochemical, calf; conditions: taxol-induced assembly, MES buffer pH 6.8, 37C; average of three independent measurements; read-out: Anti-tubulin effect, turbidity at 350 nm, IC50
# Text: as §1
smiles,measurement,setting,value
"CC[C@]1(O)C[C@@H]2CN(CCc3c([nH]c4ccccc34)[C@@](C(=O)OC)(c3cc4c(cc3OC)N(C)[C@@H]3[C@]45CCN4CC=C[C@@](CC)(C[C@@]36OC(=O)N(CCCl)C6=O)[C@H]45)C2)C1 [KAR-2, 3′-(β-chloroethyl)-2′,4′-dioxo-3,5′-spiro-oxazolidino-4-deacetoxy-vinblastine]",IC50,[1],310 nM
same,Effect on calmodulin induced PFK inactivation: Activity (U mg-1),"calmodulin; PFK 1.2 M protomers, calmodulin 3 M, 60 min, without calmodulin 66.6 U mg-1, with calmodulin 8.0 U mg-1",11.1 U mg-1
same,anti-calmodulin activity in the PFK assay (in words),calmodulin,does not display anti-calmodulin activity
same,Anti-calmodulin activity: Efficiency (%),"calmodulin; calculated from the activity data (100% = PFK without calmodulin, 0% = PFK with calmodulin)",5%
same,IC50,tubulin,200 nM
